Measured values: US20240180093A1, “GENETIC MARKERS AND SOYBEAN PLANTS WITH INCREASED TOLERANCE TO DICAMBA” (THE CURATORS OF THE UNIVERSITY OF MISSOURI, priority 2022, published 2024)
Read-outs that look alike come from different tables or passages of the source.

How the values were obtained:
[1] = test system: soybean accessions; conditions: for Mean off-target dicamba damage score: 1 to 5 scale
Excerpt: A total of 382 genetically diverse soybean accessions with maturity groups (MG) ranging from MG 3 to 5 were used in this study. These comprise a subset of the USDA Soybean Germplasm Collection and originated from […], including Algeria (2), China (226), Costa Rica (1), Georgia (2), Indonesia (1), Japan (38), Nepal (1), North Korea (20), Russia (5), South Africa (1), South Korea (32), Taiwan (3), United States (40), and Vietnam (5). Five accessions have unknown origins. The USDA Soybean Germplasm Collection was genotyped with the SoySNP50K BeadChip.
Field trials were conducted in three environments for two years (2020-2021) using a two-replicate randomized complete block design in Portageville, MO (36°23′44.2″N lat; 89°36′52.3″W long) and Clarkton, MO (36°29′14.8″N lat; 89°57′39.0″W long). Each plot consisted of a single 2.13 m long row spaced 0.76 m apart.
Each year, genotypes were visually assessed for off-target dicamba damage once in the early reproductive stage between R1 to R3 (approximately […]). Lines were rated on a 1 to 5 scale with 0.5 increments.
Adjusted means across environments were calculated using the function ‘ls_means’ of the R package ‘lmerTest’ (available at https://www.r-project.org/) based on a mixed-effects linear model conducted with the package ‘lme4’. The model included the fixed effect of genotype, the random interaction between genotype and environment (G×E), the random effect of environment, and the nested random effect of replication within the environment. To measure the consistency and inter-relatedness of the damage ratings across environments, Cronbach's alpha (α) score was calculated each year using the R package ‘psych’ (Revelle, 2021) based on Eq. 1.

[2] = cited from earlier work

COc1c(Cl)ccc(Cl)c1C(=O)O [dicamba, 3,6-dichloro-2-methoxybenzoic acid]
Mean off-target dicamba damage score ([1]; environment 2020-Clarkton): 2.70 | Mean off-target dicamba damage score ([1]; environment 2021-Clarkton): 2.80 | Mean off-target dicamba damage score ([1]; environment 2021-LeeFarm): 2.60 | Mean off-target dicamba damage score ([1]; overall, three environments 2020-2021, 382 accessions): 2.70 | average damage ([1]; accession PI 88788): 3.5 | average damage ([1]; accession PI 342434 (Japan)): 1.5 | average damage ([1]; accession PI 424005 (South Korea)): 1.2 | average damage ([1]; accession PI 424038-B (South Korea)): 1.3 | average damage ([1]; accession PI 547862 (L83-570, United States)): 4.1 | average damage ([1]; accession PI 552538 (Dunbar, United States)): 4.2 | average damage ([1]; accession PI 561701 (G88-20092, United States)): 1.4 | average damage ([1]; accession PI 597387 (Pana, United States)): 4.5 | average damage ([1]; accession PI 598124 (Maverick, United States)): 4.3 | average damage ([1]; accession PI 603497 (China)): 1.4 | average damage ([1]; accession PI 603675 (China)): 4.5 | average damage ([1]; accessions derived from Asia): 2.6 | average damage ([1]; accessions derived from the Americas): 3.0 | average damage ([1]; accessions from China): 2.7 | average damage ([1]; accessions from Costa Rica): 3.1 | average damage ([1]; accessions from Japan): 2.6 | average damage ([1]; accessions from South Korea): 2.5 | average damage ([1]; accessions from the United States): 2.3 | average damage ([1]; accessions of maturity group MG 3): 2.8 | average damage ([1]; accessions of maturity group MG 4): 2.7 | average damage ([1]; accessions of maturity group MG 5): 2.5 | mean score of dicamba damage ([1]; genotypes carrying all three favorable alleles (ss715605561, ss715635349, ss715632413)): 1.58 | mean score of dicamba damage ([1]; genotypes carrying all three unfavorable alleles (ss715605561, ss715635349, ss715632413)): 2.90

O=C(O)CNCP(=O)(O)O [glyphosate, N-(phosphonomethyl)glycine]
water solubility [2]: high water solubility
